Experimental data from ChEMBL document CHEMBL4002623, “Synthesis and in vitro activity of dicationic indolyl diphenyl ethers as novel potent antibiotic agents against drug-resistant bacteria” (Bioorg Med Chem Lett, 2017).
In brackets after ≈: the same amount, converted by molar mass.

Legend:
[1] = system: Staphylococcus aureus; assay: Antibacterial activity against methicillin-sensitive Staphylococcus aureus ATCC 29213 by agar dilution method; assay type: functional
[2] = system: Staphylococcus aureus; assay: Antibacterial activity against methicillin-resistant Staphylococcus aureus 09-13 by agar dilution method; assay type: functional
[3] = system: Staphylococcus epidermidis; assay: Antibacterial activity against methicillin-sensitive Staphylococcus epidermidis ATCC 12228 by agar dilution method; assay type: functional
[4] = system: Staphylococcus epidermidis; assay: Antibacterial activity against methicillin-resistant Staphylococcus epidermidis 09-3 by agar dilution method; assay type: functional
[5] = system: Enterococcus faecalis; assay: Antibacterial activity against vancomycin-sensitive Enterococcus faecalis ATCC 29212 by agar dilution method; assay type: functional
[6] = system: Enterococcus faecalis; assay: Antibacterial activity against vancomycin-resistant Enterococcus faecalis 09-9 by agar dilution method; assay type: functional
[7] = system: Enterococcus faecium; assay: Antibacterial activity against vancomycin-resistant Enterococcus faecium ATCC 700221 by agar dilution method; assay type: functional
[8] = system: Escherichia coli; assay: Antibacterial activity against extended-spectrum beta-lactamase-negative Escherichia coli ATCC 25922 by agar dilution method; assay type: functional
[9] = system: Escherichia coli; assay: Antibacterial activity against extended-spectrum beta-lactamase-positive Escherichia coli 09-1 by agar dilution method; assay type: functional
[10] = system: Klebsiella pneumoniae; assay: Antibacterial activity against extended-spectrum beta-lactamase-negative Klebsiella pneumoniae 7 by agar dilution method; assay type: functional
[11] = system: Klebsiella pneumoniae; assay: Antibacterial activity against extended-spectrum beta-lactamase-positive Klebsiella pneumoniae 09-25 by agar dilution method; assay type: functional
[12] = system: Klebsiella pneumoniae; assay: Antibacterial activity against Klebsiella pneumoniae ATCC BAA-2146 expressing NDM-1 by agar dilution method; assay type: functional
[13] = Cytotoxicity against HEK293T cells after 48 hrs by MTS assay; assay type: cell-based, HEK-293T; details: human
[14] = system: Enterococcus faecium; assay: Antibacterial activity against vancomycin-sensitive Enterococcus faecium 09-10 by agar dilution method; assay type: functional
[15] = system: Staphylococcus aureus; assay: Antibacterial activity against methicillin-resistant Staphylococcus aureus ATCC 33591 by agar dilution method; assay type: functional
[16] = system: Staphylococcus aureus; assay: Antibacterial activity against methicillin-sensitive Staphylococcus aureus 15 by agar dilution method; assay type: functional
[17] = system: Staphylococcus aureus; assay: Antibacterial activity against methicillin-sensitive Staphylococcus aureus 09-6 by agar dilution method; assay type: functional
[18] = system: Staphylococcus epidermidis; assay: Antibacterial activity against methicillin-sensitive Staphylococcus epidermidis 09-9 by agar dilution method; assay type: functional
[19] = system: Enterococcus faecalis; assay: Antibacterial activity against vancomycin-resistant Enterococcus faecalis ATCC 51299 by agar dilution method; assay type: functional
[20] = system: Enterococcus faecalis; assay: Antibacterial activity against vancomycin-sensitive Enterococcus faecalis 09-8 by agar dilution method; assay type: functional
[21] = system: Enterococcus faecium; assay: Antibacterial activity against vancomycin-resistant Enterococcus faecium 05-8 by agar dilution method; assay type: functional
[22] = system: Escherichia coli; assay: Antibacterial activity against extended-spectrum beta-lactamase-negative Escherichia coli 1515 by agar dilution method; assay type: functional
[23] = system: Escherichia coli; assay: Antibacterial activity against extended-spectrum beta-lactamase-negative Escherichia coli 09-20 by agar dilution method; assay type: functional
[24] = system: Klebsiella pneumoniae; assay: Antibacterial activity against extended-spectrum beta-lactamase-positive Klebsiella pneumoniae ATCC 700603 by agar dilution method; assay type: functional
[25] = system: Klebsiella pneumoniae; assay: Antibacterial activity against extended-spectrum beta-lactamase-negative Klebsiella pneumoniae 09-8 by agar dilution method; assay type: functional
[26] = system: Pseudomonas aeruginosa; assay: Antibacterial activity against Pseudomonas aeruginosa ATCC 27853 by agar dilution method; assay type: functional
[27] = system: Pseudomonas aeruginosa; assay: Antibacterial activity against Pseudomonas aeruginosa PAO1 by agar dilution method; assay type: functional
[28] = system: Pseudomonas aeruginosa; assay: Antibacterial activity against Pseudomonas aeruginosa 09-14 by agar dilution method; assay type: functional
[29] = system: Acinetobacter calcoaceticus; assay: Antibacterial activity against Acinetobacter calcoaceticus ATCC 19606 by agar dilution method; assay type: functional
[30] = system: Enterobacter cloacae; assay: Antibacterial activity against Enterobacter cloacae 45301 by agar dilution method; assay type: functional
[31] = system: Klebsiella aerogenes; assay: Antibacterial activity against Enterobacter aerogenes 45102 by agar dilution method; assay type: functional
[32] = system: Serratia marcescens; assay: Antibacterial activity against Serratia marcescens 41002 by agar dilution method; assay type: functional
[33] = system: Morganella morganii; assay: Antibacterial activity against Morganella morganii ATCC 25830 by agar dilution method; assay type: functional
[34] = system: Providencia rettgeri; assay: Antibacterial activity against Providencia rettgeri ATCC 31052 by agar dilution method; assay type: functional
[35] = system: Proteus vulgaris; assay: Antibacterial activity against Proteus vulgaris ATCC 29905 by agar dilution method; assay type: functional
[36] = system: Proteus mirabilis; assay: Antibacterial activity against Proteus mirabilis 09-1 by agar dilution method; assay type: functional
[37] = system: Salmonella typhi; assay: Antibacterial activity against Salmonella typhi H901 by agar dilution method; assay type: functional, Salmonella enterica subsp. enterica serovar Typhi; details: Salmonella enterica
[38] = system: Citrobacter freundii; assay: Antibacterial activity against Citrobacter freundii ATCC 43864 by agar dilution method; assay type: functional

| Structure (SMILES) | MIC [1] | MIC [2] | MIC [3] | MIC [4] | MIC [5] | MIC [6] | MIC [7] | MIC [8] | MIC [9] | MIC [10] | MIC [11] | MIC [12] | CC50 at 48 h [13] | MIC [14] | MIC [15] | MIC [16] | MIC [17] | MIC [18] | MIC [19] | MIC [20] | also measured |
| --- | --- | --- | --- | --- | --- | --- | --- | --- | --- | --- | --- | --- | --- | --- | --- | --- | --- | --- | --- | --- | --- |
| N=C(c1ccc2cc(-c3ccc(Oc4ccc(-c5cc6ccc(C(=N)N7CCCC7)cc6[nH]5)cc4)cc3)[nH]c2c1)N1CCCC1 | 2 µg/mL (≈ 3.37 µM) | 1 µg/mL (≈ 1.69 µM) | 0.5 µg/mL (≈ 0.844 µM) | 1 µg/mL (≈ 1.69 µM) | 8 µg/mL (≈ 13.5 µM) | 32 µg/mL (≈ 54 µM) | 2 µg/mL (≈ 3.37 µM) | 16 µg/mL (≈ 27 µM) | 64 µg/mL (≈ 108 µM) | 64 to 128 µg/mL (≈ 108 to 216 µM) | 64 to 128 µg/mL (≈ 108 to 216 µM) | 64 to 128 µg/mL (≈ 108 to 216 µM) | 3.2 µg/mL (≈ 5.4 µM) | 8 µg/mL (≈ 13.5 µM) | 1 µg/mL (≈ 1.69 µM) | 1 µg/mL (≈ 1.69 µM) | 2 µg/mL (≈ 3.37 µM) | 2 µg/mL (≈ 3.37 µM) | 8 µg/mL (≈ 13.5 µM) | 32 µg/mL (≈ 54 µM) | MIC [21]: 8 µg/mL (≈ 13.5 µM); MIC [22]: 64 µg/mL (≈ 108 µM); MIC [23]: 64 µg/mL (≈ 108 µM); MIC [24]: 128 µg/mL (≈ 216 µM); MIC [25]: 64 µg/mL (≈ 108 µM); MIC [26]: > 128 µg/mL; MIC [27]: > 128 µg/mL; MIC [28]: > 128 µg/mL; MIC [29]: > 128 µg/mL; MIC [30]: 64 µg/mL (≈ 108 µM); MIC [31]: > 128 µg/mL; MIC [32]: > 128 µg/mL; MIC [33]: 16 µg/mL (≈ 27 µM); MIC [34]: > 128 µg/mL; MIC [35]: 64 µg/mL (≈ 108 µM); MIC [36]: 128 µg/mL (≈ 216 µM); MIC [37]: 32 µg/mL (≈ 54 µM); MIC [38]: 128 µg/mL (≈ 216 µM) |
| N=C(NC1CCCC1)c1ccc2cc(-c3ccc(Oc4ccc(-c5cc6ccc(C(=N)NC7CCCC7)cc6[nH]5)cc4)cc3)[nH]c2c1 | 128 µg/mL (≈ 206 µM) | 64 µg/mL (≈ 103 µM) | 8 µg/mL (≈ 12.9 µM) | 16 µg/mL (≈ 25.8 µM) | 128 µg/mL (≈ 206 µM) | 128 µg/mL (≈ 206 µM) | ≥ 128 µg/mL | > 128 µg/mL | > 128 µg/mL | > 128 µg/mL | > 128 µg/mL | > 128 µg/mL | 28.9 µg/mL (≈ 46.6 µM) | ≥ 128 µg/mL | 64 µg/mL (≈ 103 µM) | 128 µg/mL (≈ 206 µM) | 128 µg/mL (≈ 206 µM) | 8 µg/mL (≈ 12.9 µM) | 128 µg/mL (≈ 206 µM) | 128 µg/mL (≈ 206 µM) | MIC [21]: > 128 µg/mL; MIC [22]: > 128 µg/mL; MIC [23]: > 128 µg/mL; MIC [24]: > 128 µg/mL; MIC [25]: > 128 µg/mL; MIC [26]: > 128 µg/mL; MIC [27]: > 128 µg/mL; MIC [28]: > 128 µg/mL; MIC [29]: > 128 µg/mL; MIC [30]: > 128 µg/mL; MIC [31]: > 128 µg/mL; MIC [32]: > 128 µg/mL; MIC [33]: > 128 µg/mL; MIC [34]: > 128 µg/mL; MIC [35]: > 128 µg/mL; MIC [36]: > 128 µg/mL; MIC [37]: > 128 µg/mL; MIC [38]: > 128 µg/mL |
